The values that follow come from US4782064A, “2-heteroaryl-alkyl-1H-benz[de]-isoquinoline-1,3(2H)-diones” (American Cyanamid Co., priority 1986, dated 1988).

One assay addresses T1, thromboxane synthetase (Rattus norvegicus, UniProt P49430).
T1 construct: The platelets were isolated by centrifuging the PRP for 10 minutes; endogenous in cells; host or cells: washed platelets from arterial blood of Okamoto-Aoki spontaneously hypertensive rats (Taconic Farms, Germantown, N.Y.)
T1 sequence (P49430 1-533): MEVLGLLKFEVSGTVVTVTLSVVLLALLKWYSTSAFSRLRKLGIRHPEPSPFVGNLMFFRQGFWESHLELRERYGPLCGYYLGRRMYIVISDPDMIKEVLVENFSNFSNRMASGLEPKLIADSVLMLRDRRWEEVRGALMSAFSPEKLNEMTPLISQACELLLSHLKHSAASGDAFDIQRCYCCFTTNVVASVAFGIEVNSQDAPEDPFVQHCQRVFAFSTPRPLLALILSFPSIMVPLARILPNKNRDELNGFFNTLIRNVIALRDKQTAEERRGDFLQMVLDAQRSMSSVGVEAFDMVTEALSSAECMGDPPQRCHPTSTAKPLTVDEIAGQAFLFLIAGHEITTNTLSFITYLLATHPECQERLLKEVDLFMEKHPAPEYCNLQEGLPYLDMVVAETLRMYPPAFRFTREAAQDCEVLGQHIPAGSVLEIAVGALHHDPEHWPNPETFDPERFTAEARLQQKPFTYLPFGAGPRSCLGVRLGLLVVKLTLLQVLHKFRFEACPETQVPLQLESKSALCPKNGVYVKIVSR
Nature of the assay: inhibition of thromboxane (TX) formation in platelets (TXB2 by radioimmunoassay). Particulars: drug at 10^-4 M, 10 minutes at 37° C., washed SHR platelets, TXB2 RIA. Type of assay: cell-based, Okamoto-Aoki spontaneously hypertensive rats (SHR). The method, then:
From Okamoto-Aoki spontaneously hypertensive rats (SHR) (Taconic Farms, Germantown, N.Y.) between 19 and 24 weeks in age, under urethan anesthesia, […] of arterial blood was collected in one ml of 3.2% sodium citrate a polystyrene tube. The blood was diluted with 3 ml cold saline and centrifuged at room temperature for 15 minutes at 460×g. The platelet rich plasma (PRP) was separated. The platelets were isolated by centrifuging the PRP for 10 minutes at 1060×g nd were washed in 4 ml cold oxygenated Krebs phosphate buffer, pH 7.4. The chilled platelets recovered from centrifuging at 800×g for 10 minutes were resuspended in oxygenated Krebs phosphate buffer and diluted to contain 4.5-6.0×10^4 platelets/μl. The inhibition of thromboxane (TX) formation was studied by determining the concentration of thromboxane B2 (TXB2), the stable hydrolysis product of TXA2. Assay samples, prepared on ice, contained 200 μl platelet suspension, 50 μl saline, and 50 μl vehicle or drug under study at a concentration of 10^-4 M (with OKY-1581, UK-3724801, 1-benzylimidazole, and/or indometha standards). The samples were incubated for 10 minutes at 37° C. in a metabolic shaker. The reaction was terminated by immersing the tubes in an ice bath and adding 50 μl of 0.5M citric acid. The samples were centrifuged for 10 minutes in a refrigerated centrifuge and the supernatants thus obtained were decanted and stored at -20° C. The TXB2 content for each sample was determined by a direct radioimmunoassay (RIA) utilizing a TXB2 specific RIA kit purchased from New England Nuclear, Boston, Mass. and results expressed as pg TXB2 formed minute^-1 sample^-1, from which the percent inhibition of TXB2 formation was calculated.

Assay [1] has as its system spontaneously hypertensive rats. Nature of the assay: hypotensive activity in spontaneously hypertensive rats (mean arterial blood pressure). The format is in vivo, spontaneously hypertensive rats of the Okamoto strain. The following applies: by gavage, 100 mg/kg or less, two doses 24 hours apart, measured 28 hours after the initial dose; starting average MABP 160±1.5 mm; number of rats in parentheses. The method, then: The novel compounds of the present invention are also active hypotensive agents and were tested for hypotensive activity by the method of P. S. Chan and D. Poorvin, Clinical and Experimental Hypertension, 1 (6), 817-830 (1979). Male, 16 week old, spontaneously hypertensive rats of the Okamoto strain, from Taconic Farms, Germantown, N.Y. having an average mean arterial blood pressure of 160±1.5 mm of mercury were used in the test. One to 3 rats were used per test compound. The rats were dosed by gavage with a test compound, suspended in 2% pre-boiled starch at a concentration of 50 mg/ml, at a dose of 100 mg/kg of body weight or less, with 0.9% sodium chloride loading at a dose of 25 ml/kg of body weight. A second identical dose of the test compound, without sodium chloride loading was given 24 hours later. At 28 hours after the initial dose, the mean arterial blood pressure (MABP) was measured by the method of Chan and Poorvir vide supra. The procedure was repeated in a second and third rat when necessary as specified in the referenced method.

The subject of the next assay is ischemic myocardium. The following applies: canines; cited from earlier work.
Assay [2] relates to coronary arteries of guinea pigs and rabbits. The following applies: cited from earlier work.

Where a name gives a salt, the structure may show the parent alone.

The compound `O=C1c2cccc3cccc(c23)C(=O)N1CCCn1ccnc1` [2-[3(1 --H--imidazol-1-yl)propyl]-1 --H--benz[de]isoquinoline-1,3(2 --H)--dione] gave an inhibition at 100 µM against thromboxane synthetase of 89%. Also, the “MABP/mm Hg (no. of rats)” value in assay [1] is 103 mm Hg.

Compound `O=C1c2cccc3cccc(c23)C(=O)N1CCCn1cncn1` [2-[3-(1 --H--1,2,4-triazol-1-yl)-propyl]-1 --H--benz[de]isoquinoline-1,3(2 --H)--dione] had an inhibition at 100 µM on thromboxane synthetase of 96%.

For the compound `O=C1c2cccc3cccc(c23)C(=O)N1C(CCn1ccnc1)c1ccccc1` (stereo not shown) [2-[3-(1 --H--imidazol-1-yl)-1-phenyl-propyl]-1 --H--benz[de]isoquinoline-1,3(2 -- H)--dione], the inhibition at 100 µM at thromboxane synthetase amounted to 97%.

For `CC(CN1C(=O)c2cccc3cccc(c23)C1=O)Cn1ccnc1` (stereo not shown) [2-[3-(1 --H--imidazol-1-yl)-2-methyl-propyl]-1 --H--benz[de]isoquinoline-1,3(2 --H)--dione], the inhibition at 100 µM on thromboxane synthetase came out at 99%. In assay [1], the “MABP/mm Hg (no. of rats)” value came out at 134 mm Hg.

At thromboxane synthetase, `CC(CN1C(=O)c2cccc3cc([N+](=O)[O-])cc(c23)C1=O)Cn1ccnc1` (stereo not shown) [2-[3-(1 --H--imidazol-1-yl)-2-methyl-propyl]-5-nitro-1 --H--benz[de]-isoquinoline-1,3(2 --H)--dione] gave an inhibition at 100 µM of 100%.

`CC(CCN1C(=O)c2cccc3cccc(c23)C1=O)n1ccnc1` (stereo not shown) [2-[3-(1 --H--imidazol-1-yl)butyl]-1 --H--benz[de]isoquinoline-1,3(2 --H)--dione] yielded an inhibition at 100 µM against thromboxane synthetase of 97%. Further, in assay [1], the “MABP/mm Hg (no. of rats)” value is listed as 120 mm Hg.

Consider `CC(CCN1C(=O)c2cccc3cc([N+](=O)[O-])cc(c23)C1=O)n1ccnc1` (stereo not shown) [2-[3-(1 --H--imidazol-1-yl)butyl]-5-nitro-1 --H--benz[de]isoquinoline-1,3(2 --H)--dione], for which the inhibition at 100 µM on thromboxane synthetase worked out at 100%.

Regarding `O=C1c2cccc3cc([N+](=O)[O-])cc(c23)C(=O)N1CCCn1ccnc1` [2-[3-(1 --H--imidazol-1-yl)propyl]-5-nitro-1 --H--benz[de]isoquinoline-1,3(2 --H)--dione], 100 µM produced 100% inhibition on thromboxane synthetase. In addition, the “MABP/mm Hg (no. of rats)” value in assay [1] is 97 mm Hg.

At thromboxane synthetase, `Cc1cn(CCCN2C(=O)c3cccc4cccc(c34)C2=O)cn1` [2-[3-(4-methyl-1 --H--imidazol-1-yl)-propyl]-1 --H--benz[de]isoquinoline-1,3(2 --H)--dione] registered an inhibition at 100 µM of 98%.

The compound `O=C1c2cccc3cccc(c23)C(=O)N1CCCCn1ccnc1` [2-[4-(1H-Imidazol-1-yl)butyl]-1H-benz-[de]isoquinoline-1,3(2H)-dione] registered an inhibition at 100 µM against thromboxane synthetase of 96%. Also, the “MABP/mm Hg (no. of rats)” value in assay [1] turned out to be 106 mm Hg.

Regarding `O=C1c2cccc3cc([N+](=O)[O-])cc(c23)C(=O)N1CCCCn1ccnc1` [2-[4-(1H-Imidazol-1-yl)butyl]-5-nitro-1H-benz[de]isoquinoline-1,3(2H)-dione], the inhibition at 100 µM at thromboxane synthetase worked out at 97%. The “MABP/mm Hg (no. of rats)” value in assay [1] is listed as 123 mm Hg.

`O=C1c2cccc3cccc(c23)C(=O)N1CCCCc1cccnc1` [2-[4-(3-pyridinyl)butyl]-1 --H--benz[de]isoquinoline-1,3(2 --H)--dione] registered an inhibition at 100 µM at thromboxane synthetase of 98%. Further, the “MABP/mm Hg (no. of rats)” value in assay [1] amounted to 137 mm Hg.

At thromboxane synthetase, `O=C1c2cccc3cccc(c23)C(=O)N1CCCCCn1ccnc1` [2-[5-(1 --H--imidazol-1-yl)pentyl)-1 --H--benz[de]isoquinoline-1,3(2 --H)--dione] displayed an inhibition at 100 µM of 100%.

For `O=C1c2cccc3cc([N+](=O)[O-])cc(c23)C(=O)N1CCCCCn1ccnc1` [2-[5-(1 --H--imidazol-1-yl)pentyl)-5-nitro-1 --H--benz[de]isoquinoline-1,3(2 --H)--dione], at thromboxane synthetase, the inhibition at 100 µM was 98%.

As for `O=C1c2cccc3cccc(c23)C(=O)N1CCCCCCCCn1ccnc1` [2-[8-(1H-Imidazol-1-yl)octyl]-1H-benz[de]isoquinoline-1,3(2H)-dione], at 100 µM the inhibition at thromboxane synthetase was 98%.

The compound `O=C1c2cccc3cc([N+](=O)[O-])cc(c23)C(=O)N1CCc1cccnc1` [5-Nitro-2-[2-(3-pyridinyl)ethyl]-1 --H--benz[de]isoquinoline-1,3(2 --H)--dione] showed an inhibition at 100 µM against thromboxane synthetase of 94%.

In turn, `O=C1c2cccc3cc([N+](=O)[O-])cc(c23)C(=O)N1CCCn1cncn1` [5-Nitro-2-[3-(1 --H--1,2,4-triazol-1-yl)propyl]-1 --H--benz[de]isoquinoline-1,3(2 --H)--dione] came in with an inhibition at 100 µM on thromboxane synthetase of 94%. Further, in assay [1], the “MABP/mm Hg (no. of rats)” value is on record as 127 mm Hg.

At thromboxane synthetase, `O=C1c2cccc3cc([N+](=O)[O-])cc(c23)C(=O)N1CCCn1ccnc1-c1ccccc1` [5-Nitro-2-[3-(2-phenyl-1 --H--imidazol-1-yl)propyl]-1 --H-- benz[de]-isoquinoline-1,3(2 --H)--dione] yielded an inhibition at 100 µM of 89%.

`O=C1c2cccc3cc([N+](=O)[O-])cc(c23)C(=O)N1CCCCc1cccnc1` [5-nitro-2-[4-(3-pyridinyl)butyl]-1 --H--benz[de]isoquinoline-1,3(2 --H)--dione] displayed an inhibition at 100 µM against thromboxane synthetase of 94%.

For the compound `Nc1ccc2c3c(cccc13)C(=O)N(CCCCn1ccnc1)C2=O` [6-Amino-2-[4-(1 --H--imidazol-1-yl)butyl]-1 --H--benz[de]isoquinoline-1,3-(2 --H)--dione dihydrochloride], at thromboxane synthetase, the inhibition at 100 µM was 96%. In addition, in assay [1], the “MABP/mm Hg (no. of rats)” value is reported as 115 mm Hg.

As to `O=C1c2cccc3c(Cl)ccc(c23)C(=O)N1CCCn1ccnc1` [6-Chloro-2-[3(1 --H--imidazol-1-yl)-propyl]-1 --H--benz[de]isoquinoline-1,3(2 --H)--dione monohydrochloride], testing at 100 µM at thromboxane synthetase gave an inhibition of 95%.

For the compound `O=C1c2cccc3c(Cl)ccc(c23)C(=O)N1CCCCn1ccnc1` [6-Chloro-2-[4-(1H-imidazol-1-yl)butyl]-1H-benz[de]isoquinoline-1,3(2H)-dione monohydrochloride], the inhibition at 100 µM on thromboxane synthetase came out at 96%.

With `O=C1c2cccc3c(Cl)ccc(c23)C(=O)N1CCCCCn1ccnc1` [6-Chloro-2-[5-(1 --H--imidazol-1-yl)pentyl]-1 --H--benz[de]isoquinoline-1,3-(2 --H)--dione], the inhibition at 100 µM against thromboxane synthetase stood at 94%.

Turning to `CCCCC[C@H](O)/C=C/[C@@H]1[C@H]2C/C(=C/CCCC(=O)O)O[C@H]2C[C@H]1O` [PGI2, Prostacyclin], the “effects on ischemic myocardium” value in the assay on ischemic myocardium is recorded as “beneficial effects”.

In the case of `CCCCC[C@H](O)/C=C/[C@H]1O[C@H]2C[C@H](O2)[C@@H]1C/C=C\CCCC(=O)O` [TXA2, thromboxane A2], the “effect of injection into coronary arteries” value in assay [2] was “causes myocardial ischemia and subendocardial necrosis”.

What is called inhibition is the relative decrease from the control value, in per cent.
